Assay results: ChEMBL document CHEMBL1201862, “PubChem BioAssay data set” (2004)
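Dose response: 5 concentrations. Exposure: 48 h. Format: 96-well plates. Endpoint: linear interpolation; highest concentration if not reached. GI50: concentration for 50% inhibition of growth.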 Active and inactive are the calls of the source. Rule as the data show it: active = GI50 up to about 1.1 µM and inactive = higher.

Key:
Test in all cases: growth of human tumour cells (NCI), 48 h
OVCAR-3 = tested on: OVCAR-3
SNB-19 = tested on: SNB-19
OVCAR-8 = tested on: OVCAR-8
HOP-92 = tested on: HOP-92
SR = tested on: SR
NCI-H226 = tested on: NCI-H226
KM12 = tested on: KM12
LOX IMVI = tested on: LOX IMVI
SF-268 = tested on: SF-268
U-251 = tested on: U-251
A549 = tested on: A549
HL-60 = tested on: HL-60
Malme-3M = tested on: Malme-3M
SW-620 = tested on: SW-620
CCRF-CEM = tested on: CCRF-CEM
COLO 205 = tested on: COLO 205
OVCAR-4 = tested on: OVCAR-4

| SMILES | GI50 (OVCAR-3) | GI50 (SNB-19) | GI50 (OVCAR-8) | GI50 (HOP-92) | GI50 (SR) | GI50 (NCI-H226) | GI50 (KM12) | GI50 (LOX IMVI) | GI50 (SF-268) | GI50 (U-251) | GI50 (A549) | GI50 (HL-60) | GI50 (Malme-3M) | GI50 (SW-620) | GI50 (CCRF-CEM) | GI50 (COLO 205) | GI50 (OVCAR-4) |
| --- | --- | --- | --- | --- | --- | --- | --- | --- | --- | --- | --- | --- | --- | --- | --- | --- | --- |
| Cc1csc(=S)n1OC(=O)NC1CCCCC1 | > 63.8 µM (inactive) | > 100 µM (inactive) | > 100 µM (inactive) | 7.89 µM (inactive) | 12.1 µM (inactive) | > 100 µM (inactive) | > 80.9 µM (inactive) | 65.3 µM (inactive) | > 87.1 µM (inactive) | 63.8 µM (inactive) | > 73.3 µM (inactive) | 17.9 µM (inactive) | > 100 µM (inactive) | > 56.8 µM (inactive) | 9.57 µM (inactive) |  |  |
| COC1(OC)CC2C(=O)N(Cc3ccccc3)C1CC2S(=O)(=O)c1ccccc1 (stereo not drawn) | > 100 µM (inactive) | > 100 µM (inactive) | > 100 µM (inactive) |  |  | > 100 µM (inactive) | > 100 µM (inactive) | > 100 µM (inactive) |  | > 100 µM (inactive) | > 100 µM (inactive) | > 100 µM (inactive) | > 100 µM (inactive) | > 100 µM (inactive) | > 100 µM (inactive) | > 100 µM (inactive) |  |
| C/N=c1\ss/c(=N\C(=S)N(C)C)n1C |  | > 100 µM (inactive) | > 100 µM (inactive) | > 100 µM (inactive) | > 100 µM (inactive) | 27.5 µM (inactive) | > 100 µM (inactive) |  | > 100 µM (inactive) | > 100 µM (inactive) | > 100 µM (inactive) | > 100 µM (inactive) | > 100 µM (inactive) | > 100 µM (inactive) | > 100 µM (inactive) |  | > 100 µM (inactive) |
| Cc1ccc(NC(=S)SCCC(=O)O)cc1 | > 100 µM (inactive) | > 100 µM (inactive) | > 100 µM (inactive) |  | > 100 µM (inactive) | > 100 µM (inactive) | > 100 µM (inactive) | > 100 µM (inactive) | 71.6 µM (inactive) | > 100 µM (inactive) | > 100 µM (inactive) | > 100 µM (inactive) |  | > 100 µM (inactive) | > 100 µM (inactive) | > 100 µM (inactive) | > 100 µM (inactive) |
| CCOc1ccc(NC2=NC(=O)C(CC(=O)Nc3ccccc3[N+](=O)[O-])S2)cc1 (stereo not drawn) | > 100 µM (inactive) | > 100 µM (inactive) | > 100 µM (inactive) | > 100 µM (inactive) | > 100 µM (inactive) | > 100 µM (inactive) |  | > 100 µM (inactive) | > 100 µM (inactive) | > 100 µM (inactive) | > 100 µM (inactive) | > 100 µM (inactive) | > 100 µM (inactive) | > 100 µM (inactive) | > 100 µM (inactive) |  | > 100 µM (inactive) |
| CCNC1C2(CCCCC2)NC(=O)C12CCCCC2 (stereo not drawn) | > 100 µM (inactive) |  | > 100 µM (inactive) |  |  | > 100 µM (inactive) | > 100 µM (inactive) |  |  | > 100 µM (inactive) | > 100 µM (inactive) | > 100 µM (inactive) | > 100 µM (inactive) | > 100 µM (inactive) | > 100 µM (inactive) |  | > 100 µM (inactive) |
| O=C(NCCNCCO)N/N=C/c1ccccc1 | > 100 µM (inactive) | > 100 µM (inactive) | > 100 µM (inactive) |  |  | > 100 µM (inactive) | > 100 µM (inactive) | > 100 µM (inactive) | > 100 µM (inactive) | > 100 µM (inactive) | > 100 µM (inactive) | 79.3 µM (inactive) | > 100 µM (inactive) | > 100 µM (inactive) | > 100 µM (inactive) |  | > 100 µM (inactive) |
| CO[C@@]12CC(=O)/C(=C(O)\C=C\c3ccccc3)C(=O)[C@]1(OC)Cc1ccccc1O2 | 26.2 µM (inactive) | 30.1 µM (inactive) | 22.3 µM (inactive) | 48.6 µM (inactive) |  | 22.5 µM (inactive) | 19.8 µM (inactive) | 32.3 µM (inactive) | 27.7 µM (inactive) | 21.1 µM (inactive) | 25.7 µM (inactive) |  | 91 µM (inactive) | 31.3 µM (inactive) | 22.4 µM (inactive) | 47.5 µM (inactive) | 53.8 µM (inactive) |
| Nc1nc(N)c(-c2ccccc2)c(CCC(=O)Nc2ccc(Cl)cc2)n1 | > 100 µM (inactive) | > 100 µM (inactive) | > 100 µM (inactive) | > 100 µM (inactive) | > 100 µM (inactive) | > 100 µM (inactive) | > 100 µM (inactive) |  | > 100 µM (inactive) | > 100 µM (inactive) | > 100 µM (inactive) | > 100 µM (inactive) | > 100 µM (inactive) | > 100 µM (inactive) | > 100 µM (inactive) | > 100 µM (inactive) | > 100 µM (inactive) |
| COC1=CCC=C(C[C@@H]2NCCc3cc(OC)c(OC)cc32)C1 | > 100 µM (inactive) | > 100 µM (inactive) | > 100 µM (inactive) | 41.5 µM (inactive) |  | 32.1 µM (inactive) | > 100 µM (inactive) | > 100 µM (inactive) | > 100 µM (inactive) | > 100 µM (inactive) | > 100 µM (inactive) | > 100 µM (inactive) | > 100 µM (inactive) | > 100 µM (inactive) | > 100 µM (inactive) | > 100 µM (inactive) | > 100 µM (inactive) |
| Cn1cc(NC(=O)c2cc(NC(=O)CCCCCCCCC(=O)Nc3cc(C(=O)Nc4cc(C(=O)NCCC(N)N)n(C)c4)n(C)c3)cn2C)cc1C(=O)NCCC(=N)N | 31 µM (inactive) | 21.4 µM (inactive) | 21.4 µM (inactive) | 36.6 µM (inactive) |  | 25.8 µM (inactive) | 18.5 µM (inactive) | 36.9 µM (inactive) | 20.5 µM (inactive) | 17 µM (inactive) | 16.9 µM (inactive) |  | 0.935 µM (active) | 19.6 µM (inactive) | 20.7 µM (inactive) | 20 µM (inactive) | 34.7 µM (inactive) |
| Cc1cccc(NC(=O)C(=O)C(C(=O)c2ccc3ccccc3c2)C2OC(=O)c3ccccc32)c1C (stereo not drawn) | 12.9 µM (inactive) | 5.4 µM (inactive) | 10.3 µM (inactive) | 11.8 µM (inactive) |  | 2.39 µM (inactive) | 20.8 µM (inactive) | 13.2 µM (inactive) | 6.03 µM (inactive) | 5.21 µM (inactive) | 19.1 µM (inactive) | 11.4 µM (inactive) | 6.05 µM (inactive) | 7.98 µM (inactive) | 8.02 µM (inactive) | 11.5 µM (inactive) | 10.9 µM (inactive) |
| CCOC(=O)NC(=O)c1cn(C2OC(COC(=O)CCCCCCCCC(=O)OCC3OC(n4cc(C(=O)NC(=O)OCC)c(=O)[nH]c4=O)C4OC(C)(C)OC34)C3OC(C)(C)OC32)c(=O)[nH]c1=O (stereo not drawn) | 75.9 µM (inactive) | 51.6 µM (inactive) | 78 µM (inactive) | 67.1 µM (inactive) | 78.5 µM (inactive) | 77.4 µM (inactive) | 73.8 µM (inactive) | > 100 µM (inactive) | 70.5 µM (inactive) |  | 90.4 µM (inactive) | 63.5 µM (inactive) | > 100 µM (inactive) | 35.8 µM (inactive) | 30.1 µM (inactive) |  | 57 µM (inactive) |
| O=C(O)C1C2CCC(O2)C1C(=O)N1CCCCC1 (stereo not drawn) | 1.93 µM (inactive) | 15.5 µM (inactive) | 4.61 µM (inactive) | 2.38 µM (inactive) | 3.68 µM (inactive) | 5.09 µM (inactive) | 16.2 µM (inactive) | 10.2 µM (inactive) | 13.2 µM (inactive) | 4.2 µM (inactive) | 22.8 µM (inactive) |  | 10.6 µM (inactive) | 3.43 µM (inactive) |  | 1.95 µM (inactive) | 10.8 µM (inactive) |
| OCc1ccc(C2CC(c3ccco3)=NN2c2ccccc2)o1 (stereo not drawn) | > 100 µM (inactive) | > 100 µM (inactive) | > 100 µM (inactive) |  | > 100 µM (inactive) | > 100 µM (inactive) | > 100 µM (inactive) | > 100 µM (inactive) | > 100 µM (inactive) | > 100 µM (inactive) | > 100 µM (inactive) | > 100 µM (inactive) | > 100 µM (inactive) | > 100 µM (inactive) | > 100 µM (inactive) | > 100 µM (inactive) | > 100 µM (inactive) |
| CCOC(=O)NC(=O)c1cn(CCOC(=O)CCCCCCCCC(=O)OCCn2cc(C(=O)NC(=O)OCC)c(=O)[nH]c2=O)c(=O)[nH]c1=O | > 100 µM (inactive) | > 100 µM (inactive) | > 100 µM (inactive) | > 100 µM (inactive) | > 100 µM (inactive) | > 100 µM (inactive) | > 100 µM (inactive) | > 100 µM (inactive) | > 100 µM (inactive) |  | > 100 µM (inactive) | > 100 µM (inactive) | > 100 µM (inactive) | > 100 µM (inactive) | > 100 µM (inactive) |  | > 100 µM (inactive) |
| COc1cc(C(C#N)NNC(=O)c2ccccc2O)ccc1O (stereo not drawn) | 3.44 µM (inactive) |  | 5.83 µM (inactive) | 2.98 µM (inactive) | > 100 µM (inactive) | 2.05 µM (inactive) | 3.85 µM (inactive) | 2.33 µM (inactive) | 0.368 µM (active) | 0.843 µM (active) | 0.662 µM (active) | 2.45 µM (inactive) | 9.4 µM (inactive) | 8.32 µM (inactive) | 2.08 µM (inactive) | 28.6 µM (inactive) | 5.33 µM (inactive) |
| Cc1cccc(Cl)c1NC(=O)c1cccc([N+](=O)[O-])c1O | 27.5 µM (inactive) | 38.5 µM (inactive) | 48.1 µM (inactive) | 23 µM (inactive) |  | 22.2 µM (inactive) | 21.3 µM (inactive) | 27.5 µM (inactive) | 31.8 µM (inactive) | 33.7 µM (inactive) | 35.7 µM (inactive) | > 10 µM (inactive) | 27 µM (inactive) | 59 µM (inactive) | 73.5 µM (inactive) | 51.5 µM (inactive) | 24.5 µM (inactive) |
